Values after ≈ are worked out from the molar mass of the structure shown. Active and inactive are the calls of the source. The rule behind the calls is not given here.
Key:
Pseudomonas aeruginosa = experiment: Antibacterial activity against Pseudomonas aeruginosa ATCC 27853 assessed as growth inhibition after 16 to 20 hrs by microbroth dilution method; type: functional
Bacillus spizizenii [1] = experiment: Antibacterial activity against Bacillus subtilis ATCC 6633 assessed as growth inhibition after 16 to 20 hrs by microbroth dilution method; type: functional
Escherichia coli [2] = experiment: Antibacterial activity against Escherichia coli ATCC 25922 assessed as growth inhibition after 16 to 20 hrs by microbroth dilution method; type: functional
Enterococcus faecalis = experiment: Antibacterial activity against vancomycin-resistant Enterococcus faecalis ATCC 51299 assessed as growth inhibition after 16 to 20 hrs by microbroth dilution method; type: functional
Staphylococcus aureus [3] = experiment: Antibacterial activity against methicillin-resistant Staphylococcus aureus subsp. aureus ATCC 43300 assessed as growth inhibition after 16 to 20 hrs by microbroth dilution method; type: functional
L1210 = experiment: Cytotoxicity against mouse L1210 cells assessed as reduction in cell number after 48 hrs by cell counting assay; type: functional, cell-based; settings: L1210, 48 h
CCRF-CEM = experiment: Cytotoxicity against human CCRF-CEM cells assessed as reduction in cell number after 72 hrs by cell counting assay; type: functional, cell-based
HeLa [4] = experiment: Cytotoxicity against human HeLa cells assessed as reduction in cell number after 72 hrs by cell counting assay; type: functional, cell-based
Cryptococcus neoformans [5] = experiment: Antifungal activity against Cryptococcus neoformans ATCC 66031 assessed as growth inhibition at 100 uM after 48 hrs by microbroth dilution method; type: functional
Vero = experiment: Cytotoxicity against African green monkey Vero cells assessed as reduction in cell number; type: cell-based; settings: chlorocebus sabaeus
Staphylococcus aureus [6] = experiment: Antibacterial activity against methicillin-resistant Staphylococcus aureus subsp. aureus ATCC 43300 assessed as growth inhibition at 100 uM after 16 to 20 hrs by microbroth dilution method; type: functional, organism-based
HEL = experiment: Cytotoxicity against human HEL cells assessed as reduction in cell number by cell counting assay; type: functional
Bacillus spizizenii [7] = experiment: Antibacterial activity against Bacillus subtilis ATCC 6633 assessed as growth inhibition at 100 uM after 16 to 20 hrs by microbroth dilution method; type: functional
Escherichia coli [8] = experiment: Antibacterial activity against Escherichia coli ATCC 25922 assessed as growth inhibition at 100 uM after 16 to 20 hrs by microbroth dilution method; type: functional, organism-based
Cryptococcus neoformans [9] = experiment: Antifungal activity against Cryptococcus neoformans VANC-R265 assessed as growth inhibition at 100 uM after 48 hrs by microbroth dilution method; type: functional
Cryptococcus neoformans [10] = experiment: Antifungal activity against Cryptococcus neoformans JEC20 assessed as growth inhibition at 100 uM after 48 hrs by microbroth dilution method; type: functional
HeLa [11] = experiment: Cytotoxicity against human HeLa cells assessed as reduction in cell number; type: functional
Cryptococcus neoformans [12] = experiment: Antifungal activity against Cryptococcus neoformans B4546 assessed as growth inhibition at 100 uM after 48 hrs by microbroth dilution method; type: functional
Candida albicans = experiment: Antifungal activity against Candida albicans ATCC 10231 assessed as growth inhibition at 100 uM after 16 to 20 hrs by microbroth dilution method; type: functional

CN(C)[C@@H]1C(O)=C(C(N)=O)C(=O)[C@@]2(O)C(O)=C3C(=O)c4c(O)cccc4[C@@](C)(O)[C@H]3C[C@@H]12 [TETRACYCLINE]
MIC95 (Pseudomonas aeruginosa): 50 µg/mL (≈ 113 µM) | MIC95 (Bacillus spizizenii [1]): 10 µg/mL (≈ 22.5 µM) | MIC95 (Escherichia coli [2]): 10 µg/mL (≈ 22.5 µM) | MIC95 (Enterococcus faecalis): 10 µg/mL (≈ 22.5 µM) | MIC95 (Staphylococcus aureus [3]): 10 µg/mL (≈ 22.5 µM)

O=c1[nH]c(=O)c2scc([C@H]3C[C@H](O)[C@@H](CO)O3)c2[nH]1
IC50 (L1210): > 250 µM | IC50 (CCRF-CEM): > 250 µM | IC50 (HeLa [4]): > 250 µM

Clc1nc(Cl)c2[nH]ccc2n1
inhibition (Cryptococcus neoformans [5]): inactive | IC50 (L1210): 6.8 µM | MIC99 (Vero): >= 20 uM | inhibition (Staphylococcus aureus [6]): inactive | MIC99 (HEL): 20 µM (≈ 3.76 µg/mL) | inhibition (Bacillus spizizenii [7]): inactive | inhibition (Escherichia coli [8]): inactive | inhibition (Cryptococcus neoformans [9]): inactive | inhibition (Cryptococcus neoformans [10]): inactive | IC50 (CCRF-CEM): 25 µM | IC50 (HeLa [4]): 19 µM | MIC99 (HeLa [11]): 20 µM (≈ 3.76 µg/mL) | inhibition (Cryptococcus neoformans [12]): inactive | inhibition (Candida albicans): inactive

Clc1nc(-n2cncn2)c2scc(Br)c2n1
IC50 (L1210): 157 µM | IC50 (CCRF-CEM): 84 µM | IC50 (HeLa [4]): 116 µM

Reference: ChEMBL document CHEMBL3232736, “Antiproliferative activities of halogenated thieno[3,2-d]pyrimidines” (Bioorg Med Chem, 2014)
